From patent publication US9718804B2, “GSK-3 inhibitors” (BRISTOL-MYERS SQUIBB COMPANY, priority 2013, dated 2017)
Where two headings read alike, the source gives them in different places.

Legend:
[1] = target: GSK3β (Homo sapiens, UniProt P49841); assay: GSK3β kinase assay (Caliper LabChip, fluoresceinated peptide substrate); assay type: biochemical
Outline: (§1)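 Readout: electrophoretic resolution of phosphorylated from unphosphorylated peptide on a LabChip3000. Reactions incubated 20 h at room temperature before termination with 35 mM EDTA. Eleven-concentration curves gave IC50 via non-linear regression.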

[2] = target: GSK3α (Homo sapiens, UniProt P49840); assay: GSK3α kinase assay (Caliper LabChip, fluoresceinated peptide substrate); assay type: biochemical
Outline: as §1

[3] = test system: pTau; assay: pTau assay (no method described); assay type: cell-based
[4] = first value of the cell, 250 pM enzyme, 20 uM ATP, 20 hours at room temperature, read-out: GSK3β/α (nM): GSK3β IC50

Sequence of GSK3α (P49840 whole entry, species assumed): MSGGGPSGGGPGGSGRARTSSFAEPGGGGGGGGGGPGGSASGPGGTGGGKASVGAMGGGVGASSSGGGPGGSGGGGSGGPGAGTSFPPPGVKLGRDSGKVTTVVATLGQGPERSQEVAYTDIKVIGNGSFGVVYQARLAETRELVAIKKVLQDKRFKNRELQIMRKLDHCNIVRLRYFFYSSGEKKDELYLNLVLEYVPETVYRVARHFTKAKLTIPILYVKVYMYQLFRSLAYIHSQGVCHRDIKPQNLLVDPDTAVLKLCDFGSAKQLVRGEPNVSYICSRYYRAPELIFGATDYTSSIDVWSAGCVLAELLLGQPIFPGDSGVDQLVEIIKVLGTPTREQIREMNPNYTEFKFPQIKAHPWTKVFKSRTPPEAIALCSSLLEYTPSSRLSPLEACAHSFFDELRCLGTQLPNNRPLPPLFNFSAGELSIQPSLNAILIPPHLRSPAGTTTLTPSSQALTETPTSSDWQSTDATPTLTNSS
Sequence of GSK3β (P49841 whole entry, species assumed): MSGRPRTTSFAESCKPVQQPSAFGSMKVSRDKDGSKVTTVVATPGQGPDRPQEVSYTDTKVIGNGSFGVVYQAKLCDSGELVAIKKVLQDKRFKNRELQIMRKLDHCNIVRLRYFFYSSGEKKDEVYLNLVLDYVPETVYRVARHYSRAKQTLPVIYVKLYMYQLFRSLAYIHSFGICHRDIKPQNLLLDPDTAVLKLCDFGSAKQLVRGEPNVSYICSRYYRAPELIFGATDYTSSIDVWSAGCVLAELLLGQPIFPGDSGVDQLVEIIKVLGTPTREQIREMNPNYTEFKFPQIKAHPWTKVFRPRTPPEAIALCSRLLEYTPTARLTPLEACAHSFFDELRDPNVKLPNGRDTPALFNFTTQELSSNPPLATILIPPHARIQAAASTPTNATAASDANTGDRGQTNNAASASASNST

With `CCCC(O)c1cc(Cl)ncc1NC(=O)c1ccnc(Nc2ccc(C(F)(F)F)cn2)c1` (stereo not drawn) [Example 100, N-(6-Chloro-4-(1-hydroxybutyl)pyridin-3-yl)-2-((5-(trifluoromethyl)pyridin-2-yl)amino)isonicotinamide] the IC50 [1, 4] was 11 nM, the IC50 [2] was 8.4 nM and the IC50 [3] was 500 nM.
Molecule `O=C(Nc1cnccc1-c1ccccc1)c1ccnc(Nc2ccc(F)cn2)c1` [Example 8, 2-((5-Fluoropyridin-2-yl)amino)-N-(4-phenylpyridin-3-yl)isonicotinamide] has an IC50 [1, 4] of 4.1 nM, an IC50 [2] of 1.9 nM and an IC50 [3] of 132 nM.
`CC(C)(C)[S+]([O-])c1ccncc1NC(=O)c1ccnc(Nc2ccc(C(F)(F)F)cn2)c1` (stereo not drawn) [Example 178, N-(4-(tert-Butylsulfinyl)pyridin-3-yl)-2-((5-(trifluoromethyl)pyridin-2-yl)amino)isonicotinamide] gave an IC50 [1, 4] of 0.12 nM, an IC50 [2] of 1.2 nM and an IC50 [3] of 13 nM.
`O=C(Nc1cncc(-n2ccc(C(F)(F)F)n2)c1)c1ccnc(Nc2ccc(C(F)(F)F)cn2)c1` [Example 120, N-(5-(3-(Trifluoromethyl)-1H-pyrazol-1-yl)pyridin-3-yl)-2-((5-(trifluoromethyl)pyridin-2-yl)amino)isonicotinamide] gave an IC50 [1, 4] of 29 nM, an IC50 [2] of 14 nM and an IC50 [3] of 1500 nM.
Molecule `CC1(C)CN(c2ccncc2NC(=O)c2ccnc(Nc3ccc(C(F)(F)F)cn3)c2)CCO1` [Example 22, N-(4-(2,2-Dimethylmorpholino)pyridin-3-yl)-2-((5-(trifluoromethyl)pyridin-2-yl)amino)isonicotinamide] has an IC50 [1, 4] of 0.48 nM, an IC50 [2] of 0.31 nM and an IC50 [3] of 18 nM.
`CCC1(c2cc(Cl)ncc2NC(=O)c2ccnc(Nc3ccc(C(F)(F)F)cn3)c2)OC(C)C(C)O1` (stereo not drawn) [Example 81, N-(6-Chloro-4-(2-ethyl-4,5-dimethyl-1,3-dioxolan-2-yl)pyridin-3-yl)-2-((5-(trifluoromethyl)pyridin-2-yl)amino)isonicotinamide] gave an IC50 [1, 4] of 6.7 nM, an IC50 [2] of 4 nM and an IC50 [3] of 1900 nM.
`CC1(c2cc(F)ncc2NC(=O)c2ccnc(Nc3ccc(C(F)(F)F)cn3)c2)OCCO1` [Example 82, N-(6-Fluoro-4-(2-methyl-1,3-dioxolan-2-yl)pyridin-3-yl)-2-((5-(trifluoromethyl)pyridin-2-yl)amino)isonicotinamide] showed an IC50 [1, 4] of 7.1 nM, an IC50 [2] of 1.9 nM and an IC50 [3] of 230 nM.
For `Cc1cc(C(C)(O)C2CC2)c(NC(=O)c2ccnc(Nc3ccc(C(F)(F)F)cn3)c2)cn1` (stereo not drawn) [Example 107, N-(4-(1-Cyclopropyl-1-hydroxyethyl)-6-methylpyridin-3-yl)-2-((5-(trifluoromethyl)pyridin-2-yl)amino)isonicotinamide], the IC50 [1, 4] was 0.92 nM, the IC50 [2] was 0.75 nM and the IC50 [3] was 94 nM.
`CC(C)(C)C(=O)Nc1cccc(Nc2cc(C(=O)Nc3cncc(-c4ccccc4F)c3)ccn2)n1` [Example 154, N-(5-(2-Fluorophenyl)pyridin-3-yl)-2-((6-pivalamidopyridin-2-yl)amino)isonicotinamide] showed an IC50 [1, 4] of 9.2 nM, an IC50 [2] of 2.2 nM and an IC50 [3] of 1100 nM.
Molecule `CCCC1(c2cc(Cl)ncc2NC(=O)c2ccnc(Nc3ccc(C(F)(F)F)cn3)c2)OCCO1` [Example 88, N-(6-Chloro-4-(2-propyl-1,3-dioxolan-2-yl)pyridin-3-yl)-2-((5-(trifluoromethyl)pyridin-2-yl)amino)isonicotinamide] has an IC50 [1, 4] of 0.69 nM, an IC50 [2] of 0.23 nM and an IC50 [3] of 80 nM.
`O=C(Nc1cnccc1S(=O)(=O)c1ccccc1)c1ccnc(Nc2ccc(C(F)(F)F)cn2)c1` [Example 183, N-(4-(Phenylsulfonyl)pyridin-3-yl)-2-((5-(trifluoromethyl)pyridin-2-yl)amino)isonicotinamide] gave an IC50 [1, 4] of 2.2 nM, an IC50 [2] of 0.75 nM and an IC50 [3] of 200 nM.
In the case of `O=C(Nc1cnccc1-c1ccccc1)c1ccnc(Nc2cc(C(F)(F)F)ccn2)c1` [Example 3, N-(4-Phenylpyridin-3-yl)-2-((4-(trifluoromethyl)pyridin-2-yl)amino)isonicotinamide], the IC50 [1] is reported as 9 nM, the IC50 ([2]; second value of the cell, 250 pM enzyme, 20 uM ATP, 20 hours at room temperature, read-out: GSK3β/α (nM): GSK3α IC50) is reported as 8.7 nM and the IC50 [3] is reported as 705 nM.
Molecule `O=C(Nc1cnccc1-c1ccccc1F)c1ccnc(Nc2ccc(C(F)(F)F)cn2)c1` [Example 49, N-(4-(2-Fluorophenyl)pyridin-3-yl)-2-((5-(trifluoromethyl)pyridin-2-yl)amino)isonicotinamide] has an IC50 [1, 4] of 0.65 nM, an IC50 [2] of 0.32 nM and an IC50 [3] of 53 nM.
For `CC(=O)c1ccncc1NC(=O)c1ccnc(Nc2ccc(C(F)(F)F)cn2)c1` [Example 37, N-(4-Acetylpyridin-3-yl)-2-((5-(trifluoromethyl)pyridin-2-yl)amino)isonicotinamide], the IC50 [1, 4] was 3.3 nM, the IC50 [2] was 1.5 nM and the IC50 [3] was 130 nM.
`O=C(Nc1cncc(-c2ccccc2F)c1)c1ccnc(Nc2ccc(C(F)(F)F)cn2)c1` [Example 127, N-(5-(2-Fluorophenyl)pyridin-3-yl)-2-((5-(trifluoromethyl)pyridin-2-yl)amino)isonicotinamide] gave an IC50 [1, 4] of 11 nM, an IC50 [2] of 6 nM and an IC50 [3] of 1750 nM.
With `Cc1ccnc(Nc2cc(C(=O)Nc3cnccc3-c3ccccc3)ccn2)c1` [Example 6, 2-((4-Methylpyridin-2-yl)amino)-N-(4-phenylpyridin-3-yl)isonicotinamide] the IC50 [1, 4] was 1.1 nM, the IC50 [2] was 1.3 nM and the IC50 [3] was 164 nM.
For `O=C(Nc1cnccc1-c1ccc(Cl)cc1)c1ccnc(Nc2ccc(C(F)(F)F)cn2)c1` [Example 51, N-(4-(4-Cholorophenyl)pyridin-3-yl)-2-((5-(trifluoromethyl)pyridin-2-yl)amino)isonicotinamide], the IC50 [1, 4] was 9.9 nM, the IC50 [2] was 6.9 nM and the IC50 [3] was 266 nM.
Molecule `O=C(Nc1cncnc1OCC(F)(F)F)c1ccnc(Nc2ccc(C(F)(F)F)cn2)c1` [Example 194, N-(4-(2,2,2-Trifluoroethoxy)pyrimidin-5-yl)-2-((5-(trifluoromethyl)pyridin-2-yl)amino)isonicotinamide] has an IC50 [1, 4] of 3.2 nM, an IC50 [2] of 1.6 nM and an IC50 [3] of 140 nM.
`N#Cc1ccc(Nc2cc(C(=O)Nc3cnccc3N3CCCCC3)ccn2)nc1` [Example 27, 2-((5-Cyanopyridin-2-yl)amino)-N-(4-(piperidin-1-yl)pyridin-3-yl)isonicotinamide] was tested, and the IC50 [1, 4] was 0.42 nM, the IC50 [2] was 0.18 nM and the IC50 [3] was 5.2 nM.
For `Cc1cc(Nc2cc(C(=O)Nc3cnccc3-c3ccccc3)ccn2)ncc1F` [Example 9, 2-((5-Fluoro-4-methylpyridin-2-yl)amino)-N-(4-phenylpyridin-3-yl)isonicotinamide], the IC50 [1, 4] was 4.1 nM, the IC50 [2] was 2.5 nM and the IC50 [3] was 110 nM.
Work on `CN(C)S(=O)(=O)c1ccc(Nc2cc(C(=O)Nc3cnccc3OCC(F)(F)F)ccn2)nc1` [Example 30, 2-((5-(N,N-Dimethylsulfamoyl)pyridin-2-yl)amino)-N-(4-(2,2,2-trifluoroethoxy)pyridin-3-yl)isonicotinamide] yielded an IC50 [1, 4] of 0.5 nM, an IC50 [2] of 0.31 nM and an IC50 [3] of 24 nM.
`CC1CC1COc1cncc(NC(=O)c2ccnc(Nc3cccc(C(F)(F)F)n3)c2)c1` (stereo not drawn) [Example 126, N-(5-((2-Methylcyclopropyl)methoxy)pyridin-3-yl)-2-((6-(trifluoromethyl)pyridin-2-yl)amino)isonicotinamide] showed an IC50 [1, 4] of 9.7 nM, an IC50 [2] of 4.8 nM and an IC50 [3] of 3200 nM.
With `O=C(Nc1cnccc1-c1ccc(F)cc1)c1ccnc(Nc2ccc(Cl)cn2)c1` [Example 58, 2-((5-Chloropyridin-2-yl)amino)-N-(4-(4-fluorophenyl)pyridin-3-yl)isonicotinamide] the IC50 [1, 4] was 0.86 nM, the IC50 [2] was 0.36 nM and the IC50 [3] was 57 nM.
With `N#Cc1ccc(Nc2cc(C(=O)Nc3cnccc3OCC(F)(F)F)ccn2)nc1` [Example 29, 2-((5-Cyanopyridin-2-yl)amino)-N-(4-(2,2,2-trifluoroethoxy)pyridin-3-yl)isonicotinamide] the IC50 [1, 4] was 0.69 nM, the IC50 [2] was 0.62 nM and the IC50 [3] was 16 nM.
For `CC(C)(C)C(O)c1cc(Cl)ncc1NC(=O)c1ccnc(Nc2ccc(C(F)(F)F)cn2)c1` (stereo not drawn) [Example 104, N-(6-Chloro-4-(1-hydroxy-2,2-dimethylpropyl)pyridin-3-yl)-2-((5-(trifluoromethyl)pyridin-2-yl)amino)isonicotinamide], the IC50 [1, 4] was 18 nM, the IC50 [2] was 9.9 nM and the IC50 [3] was 280 nM.
In the case of `Cn1ncc(NC(=O)c2ccnc(Nc3ccc(C(F)(F)F)cn3)c2)c1C1(C)OCCO1` [Example 207, N-(1-Methyl-5-(2-methyl-1,3-dioxolan-2-yl)-1H-pyrazol-4-yl)-2-((5-(trifluoromethyl)pyridin-2-yl)amino)isonicotinamide], the IC50 [1, 4] is reported as 0.09 nM, the IC50 [2] is reported as 0.1 nM and the IC50 [3] is reported as 1.4 nM.
For `O=C(Nc1cncc(-c2ccccc2F)c1)c1ccnc(Nc2cccc(C(F)(F)F)n2)c1` [Example 134, N-(5-(2-Fluorophenyl)pyridin-3-yl)-2-((6-(trifluoromethyl)pyridin-2-yl)amino)isonicotinamide], the IC50 [1, 4] was 3.9 nM, the IC50 [2] was 1.5 nM and the IC50 [3] was 470 nM.
For `O=C(Nc1cnccc1OCC(F)(F)F)c1ccnc(Nc2ccc(Cl)cn2)c1` [Example 31, 2-((5-Chloropyridin-2-yl)amino)-N-(4-(2,2,2-trifluoroethoxy)pyridin-3-yl)isonicotinamide], the IC50 [1, 4] was 0.74 nM, the IC50 [2] was 0.3 nM and the IC50 [3] was 22 nM.
`N#Cc1cnn(-c2cncc(NC(=O)c3ccnc(Nc4cccc(C(F)(F)F)n4)c3)c2)c1` [Example 122, N-(5-(4-Cyano-1H-pyrazol-1-yl)pyridin-3-yl)-2-((6-(trifluoromethyl)pyridin-2-yl)amino)isonicotinamide] gave an IC50 [1, 4] of 6.9 nM, an IC50 [2] of 2.2 nM and an IC50 [3] of 2000 nM.
Work on `CCOc1ccncc1NC(=O)c1ccnc(Nc2ccc(C#N)cn2)c1` [Example 16, N-(4-Ethoxypyridin-3-yl)-2-((5-cyanopyridin-2-yl)amino)isonicotinamide] yielded an IC50 [1, 4] of 1.1 nM, an IC50 [2] of 0.62 nM and an IC50 [3] of 12 nM.
